Counter-ions that a name gives are not always drawn.
Columns and labels:
[1] = system: guinea pig trachea; assay: Bronchodilator activity in the guinea pig isolated tracheal ring preparation; details: 10 nM; methacholine 1 μM; 60 min; mean±s.e.mean
Description: Guinea pigs (300-500 g) were killed by cervical dislocation and the trachea was isolated. The trachea was cut into segments 2-3 cartilage rings in width and suspended in 10 ml organ baths in modified Krebs' solution (mM; NaCl, 90; NaHCO3, 45; KCl, 5; MgSO4.7H2O, 0.5; Na2HPO4.2H2O, 1; CaCl2, 2.25; glucose, 10; pH 7.4 gassed with 5% CO2, 95% O2 at 37° C.). The tracheal rings were attached to an isometric force transducer for the measurement of isometric tension. The tissues were washed and a force of 1 g was applied to each tissue. The rings were contracted with methacholine (1 μM). Once the contraction had reached a plateau, vehicle (0.01% DMSO in distilled H2O), indacaterol (10 nM), N-[2-(Diethylamino)ethyl]-N-(2-{[2-(4-hydroxy-2-oxo-2,3-dihydro-1,3-benzothiazol-7-yl)ethyl]amino}ethyl)-3-[2-(1-naphthyl)ethoxy]propanamide dihydrobromide (10 nM), N-Cyclohexyl-N^3-[2-(3-fluorophenyl)ethyl]-N-(2-{[2-(4-hydroxy-2-oxo-2,3-dihydro-1,3-benzothiazol-7-yl)ethyl]amino}ethyl)-(3-alaninamide di-D-mandelate salt (1 nM), (R)-3-(1-Phenyl-cycloheptanecarbonyloxy)-1-(pyridin-2-ylcarbamoylmethyl)-1-azonia-bicyclo[2.2.2]octane bromide (1 nM), a combination of (R)-3-(1-Phenyl-cycloheptanecarbonyloxy)-1-(pyridin-2-ylcarbamoylmethyl)-1-azonia-bicyclo[2.2.2]octane bromide (1 nM) and indacaterol (10 nM), a combination of N-[2-(Diethylamino)ethyl]-N-(2-{[2-(4-hydroxy-2-oxo-2,3-dihydro-1,3-benzothiazol-7-yl)ethyl]amino}ethyl)-3-[2-(1-naphthyl)ethoxy]propanamide dihydrobromide (10 nM) and (R)-3-(1-Phenyl-cycloheptanecarbonyloxy)-1-(pyridin-2-ylcarbamoylmethyl)-1-azonia-bicyclo[2.2.2]octane bromide (1 nM) and, or a combination of N-Cyclohexyl-N^3-[2-(3-fluorophenyl)ethyl]-N-(2-{[2-(4-hydroxy-2-oxo-2,3-dihydro-1,3-benzothiazol-7-yl)ethyl]amino}ethyl)-β-alaninamide di-D-mandelate salt (1 nM) and (R)-3-(1-Phenyl-cycloheptanecarbonyloxy)-1-(pyridin-2-ylcarbamoylmethyl)-1-azonia-bicyclo[2.2.2]octane bromide (1 nM) was added and the tissue left for 60 min. The tension was measured in each ring at 60 min following compound addition and was expressed as a % relaxation of the constriction to methacholine (1 μM) (mean±s.e.mean). Data were collected using the Chart 4 software (ADInstruments, Charlgrove, UK).

[2] = molecular target: T1, β2 (Homo sapiens, UniProt P07550); assay: Adrenergic β2 mediated cAMP production in H292 cells (AlphaScreen); type: cell-based; details: Intrinsic Activity as a fraction relative to the maximum activity of formoterol
T1 construct: endogenous in cells; host or cells: H292 cells
Description: H292 cells were grown in 225 cm2 flasks incubator at 37° C., 5% CO2 in RPMI medium containing, 10% (v/v) FBS (foetal bovine serum) and 2 mM L-glutamine.
Adherent H292 cells were removed from tissue culture flasks by treatment with Accutase™ cell detachment solution for 15 minutes. Flasks were incubated for 15 minutes in a humidified incubator at 37° C., 5% CO2. Detached cells were re-suspended in RPMI media (containing 10% (v/v) FBS and 2 mM L-glutamine) at 0.05×10^6 cells per mL. 5000 cells in 100 μL were added to each well of a tissue-culture-treated 96-well plate and the cells incubated overnight in a humidified incubator at 37° C., 5% CO2. The culture media was removed and cells were washed twice with 100 μL assay buffer and replaced with 50 μL assay buffer (HBSS solution containing 10 mM HEPES pH7.4 and 5 mM glucose). Cells were rested at room temperature for 20 minutes after which time 25 μL of rolipram (1.2 mM made up in assay buffer containing 2.4% (v/v) dimethylsulphoxide) was added. Cells were incubated with rolipram for 10 minutes after which time Compound A was added and the cells were incubated for 60 minutes at room temperature. The final rolipram concentration in the assay was 300 μM and final vehicle concentration was 1.6% (v/v) dimethylsulphoxide. The reaction was stopped by removing supernatants, washing once with 100 μL assay buffer and replacing with 50 μL lysis buffer. The cell monolayer was frozen at −80° C. for 30 minutes (or overnight).
The concentration of cAMP (cyclic adenosine monophosphate) in the cell lysate was determined using AlphaScreen™ methodology. […] The AlphaScreen™ signal was measured using an EnVision spectrophotometer (Perkin-Elmer Inc.) with the recommended manufacturer's settings. cAMP concentrations were determined by reference to a calibration curve determined in the same experiment using standard cAMP concentrations. […] Intrinsic Activity was expressed as a fraction relative to the maximum activity determined for formoterol in each experiment.

T1 sequence (P07550 whole entry): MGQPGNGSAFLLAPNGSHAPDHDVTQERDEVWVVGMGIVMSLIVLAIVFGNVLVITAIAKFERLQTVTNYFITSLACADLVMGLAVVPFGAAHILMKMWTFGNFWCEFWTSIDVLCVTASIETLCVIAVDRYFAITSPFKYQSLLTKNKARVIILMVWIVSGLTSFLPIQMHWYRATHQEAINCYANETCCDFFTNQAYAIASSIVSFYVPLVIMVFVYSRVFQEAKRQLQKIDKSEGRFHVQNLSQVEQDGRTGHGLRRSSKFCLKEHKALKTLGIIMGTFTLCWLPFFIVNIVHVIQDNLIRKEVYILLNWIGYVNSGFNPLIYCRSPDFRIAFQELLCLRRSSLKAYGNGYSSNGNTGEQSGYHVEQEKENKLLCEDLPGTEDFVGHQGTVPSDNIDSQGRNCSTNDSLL

Row | SMILES | percentage relaxation of the constriction to methacholine [1] | β2 Int Act [2]
1 | CCN(CC)CCN(CCNCCc1ccc(O)c2[nH]c(=O)sc12)C(=O)CCOCCc1cccc2ccccc12 [BA1, N-[2-(Diethylamino)ethyl]-N-(2-{[2-(4-hydroxy-2-oxo-2,3-dihydro-1,3-benzothiazol-7-yl)ethyl]amino}ethyl)-3-[2-(1-naphthyl)ethoxy]propanamide dihydrobromide] | 18±11.2% | 0.8
2 | O=c1[nH]c2c(O)ccc([C@@H](O)CNCCSCCCNCCc3ccccc3Cl)c2s1 [BA3, 7-[(1R)-2-({2-[(3-{[2-(2-Chlorophenyl)ethyl]amino}propyl)thio]ethyl}amino)-1-hydroxyethyl]-4-hydroxy-1,3-benzothiazol-2(3H)-one dihydrobromide] | – | 0.8

Reference: patent US20110190309A1, “PHARMACEUTICAL PRODUCT COMPRISING A […] RECEPTOR ANTAGONIST AND A Beta2-ADRENOCEPTOR AGONIST” (priority 2008, published 2011)
